Measurements reported in patent US20210330611A1, “THERAPY FOR NEUROLOGICAL DISEASES/DISORDERS” (priority 2020, published 2021).
“And” between values parts separate entries of the source, which are not always exact repeats. Identical values can stand only once. Counter-ions that a name gives are not always drawn. Like-named read-outs stand apart in the source and are kept apart here.

What was measured:
[1] = system: fibrin-induced microglia activation; assay: Image-based assay of fibrin-induced microglia activation (HTS and dose response); format: cell-based, rat; settings: for IC50 / inhibition at 10 µM: Rattus norvegicus, Microglia; for inhibition at 10 µM: read-out: Fibrin % inhibition
[2] = system: fibrin- and LPS-induced microglia activation; assay: cells; format: cell-based, rat; settings: for inhibition at 10 µM: Rattus norvegicus
[3] = system: LPS-induced microglia activation; assay: Image-based assay of LPS-induced microglia activation (HTS and dose response); format: cell-based, rat; settings: Rattus norvegicus, Microglia; for inhibition at 10 µM: read-out: LPS % inhibition
primary rat microglia [4] = assay: Cell toxicity (dead cells, size <150 μm2) in coated fibrin (cFib) assay;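 on Fibrin % cell toxicity: share of dead cells sized under 150 µm2 at 10 µM in fibrin-stimulated microglia HTS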
primary rat microglia [5] = assay: Cell toxicity (dead cells, size <150 μm2) in LPS assay; settings: for IC50: read-out: Cell Toxicity IC50 (uM) [LPS assay]
in vitro [6] = settings: rat
in vitro [7] = settings: rat, Cell Toxicity IC50 (uM) [cFib assay]
[8] = 48 h, Table 1, dose response 0.001-20 μM, triplicates, primary rat microglia, 48 h, read-out: Fibrin IC50
[9] = Table 3, read-out: Fibrin IC50 (uM) (Suppl. Table 7)
[10] = Table 6, read-out: Fibrin IC50 (uM) (Suppl. Table 7)
[11] = dose response, fibrin-induced microglia activation, read-out: Fibrin IC50
[12] = fibrin-induced microglia activation, dose response, read-out: Fibrin IC50 (uM) (Suppl. Table 7)
[13] = primary microglia HTS, fibrin stimulation, increased cell size (>800 μm^2) as marker of activation
[14] = HTS of 1907 compounds, quadrant by fibrin and LPS inhibition
[15] = Microglia, Table 3, read-out: Cherry-picked Hit (Suppl. Table 7)
[16] = Microglia, HTS hit classification, read-out: Hit
[17] = quadrant by fibrin and LPS inhibition in HTS of 1907 compounds
[18] = 48 h, Table 1, dose response 0.001-20 μM, triplicates, primary rat microglia, 48 h, read-out: LPS IC50
[19] = 48 h, primary microglia HTS, LPS stimulation, increased cell size (>800 μm^2) as marker of activation
[20] = LPS-induced microglia activation, dose response, read-out: LPS IC50 (uM) (Suppl. Table 7)
[21] = Table 3, read-out: LPS IC50 (uM) (Suppl. Table 7)
[22] = Table 6, read-out: LPS IC50 (uM) (Suppl. Table 7)
[23] = dose response, LPS-induced microglia activation, read-out: LPS IC50
[24] = primary microglia HTS, fibrin stimulation, decreased size (<150 μm^2) as marker of toxicity
[25] = primary microglia HTS, LPS stimulation, decreased size (<150 μm^2) as marker of toxicity
[26] = hit classification in microglia HTS, read-out: Cherry-picked Hit (Suppl. Table 7)

Row | Compound | IC50 [1, 8] [µM] | IC50 [1, 11] [µM] | IC50 [1, 12] [µM] | inhibition at 10 µM [1, 13] [%] | Quadrant (FIG. 5b) [2, 14] | inhibition at 10 µM [2, 15] [%] | inhibition at 10 µM [2, 16] [%] | Quadrant (FIG. 5b) ([2]; Table 1, screen at 10 μM) | Quadrant (FIG. 5b) ([2]; Table 3, screen at 10 μM) | Quadrant (FIG. 5b) [2, 17] | IC50 [3, 18] [µM] | inhibition at 10 µM [3, 19] [%] | IC50 [3, 20] [µM] | IC50 [3, 23] [µM] | Fibrin % cell toxicity (primary rat microglia [4]; [24]) | LPS % cell toxicity (primary rat microglia [5]; [25]) | IC50 (primary rat microglia [5]; LPS assay) [µM] | IC50 (in vitro [6]) [µM] | IC50 (in vitro [7]; Table 3) [µM] | IC50 (in vitro [7]; cFib assay) [µM] | also measured
1 | CC(=O)OCC(=O)[C@@]12N=C(C)O[C@@H]1C[C@H]1[C@@H]3CCC4=CC(=O)C=C[C@]4(C)[C@H]3[C@@H](O)C[C@@]12C [Deflazacort, reference compound] | < 0.001 | < 0.001 | < 0.001 | 111 | Q2 | > 50 | > 50 | Q2 | Q2 | Q2 | 0.04 | 105 | 0.04 | 0.04 | 2% | 4% | > 20 | > 20 | 20 | 20 | Fibrin Selectivity [1]: 42; Fibrin Selectivity (LOG10) [1]: 1.63; IC50 [1, 9]: < 0.001 µM; IC50 [1, 10]: < 0.001 µM; Fibrin Selectivity (LOG10) ([1]; fibrin vs LPS, LOG10, Table 6): 1.63; Fibrin Selectivity ([1]; fibrin vs LPS, Table 6): 42; Quadrant (FIG. 5b) ([2]; microglia HTS, Table 6): Q2; IC50 [3, 21]: 0.04 µM; IC50 [3, 22]: 0.04 µM; IC50 (primary rat microglia [5]; LPS assay, Table 6): > 20 µM; IC50 (in vitro [7]; cFib assay, Table 6): ≥ 20 µM
2 | C[C@]12CCC(=O)C=C1CC[C@@H]1[C@@H]2[C@@H](O)C[C@@]2(C)[C@H]1CC[C@]2(O)C(=O)CO [Hydrocortisone, reference compound] |  |  |  | 104 | Q2 | > 50 | > 50 | Q2 | Q2 | Q2 |  |  |  |  | 2% and 4% | 2% and 1% and 5% | > 20 | > 20 | > 20 | > 20 | IC50 [1, 10]: 0.03 µM; IC50 ([1]; Table 7, read-out: fib_IC50): 0.018 µM; Quadrant (FIG. 5b) ([2]; Table 2, screen at 10 μM): Q2; Activity ([2]; Table 7, fib = fibrin, LPS, tox = toxicity): fib/LPS; Quadrant (FIG. 5b) ([2]; microglia HTS, Table 6): Q2; IC50 [3, 22]: 18 µM; IC50 ([3]; Table 7, read-out: LPS_IC50): 0.002 µM; IC50 (primary rat microglia [5]; LPS assay, Table 6): > 20 µM; IC50 (in vitro [7]; cFib assay, Table 6): > 20 µM
3 | OCc1ccccc1O[C@@H]1O[C@H](CO)[C@@H](O)[C@H](O)[C@H]1O [Salicin, reference compound] | > 20 | > 20 | > 20 | 76 | Q2 |  | > 50 | Q2 |  | Q2 | > 20 | 61 | > 20 | > 20 | 1% | 1% |  | > 20 |  | > 20 | inhibition at 10 µM [2, 26]: > 50%
4 | CN(C)[C@@H]1C(O)=C(C(N)=O)C(=O)[C@@]2(O)C(O)=C3C(=O)c4c(O)ccc(Cl)c4[C@@H](O)[C@H]3C[C@@H]12 [Demeclocycline hydrochloride, reference compound] | 6 | 6 | 6 | 75 | Q3 | > 50 | > 50 | Q3 | Q3 | Q3 | 15 | 31 | 15 | 15 | 1% | 1% | > 20 | > 20 | > 20 | > 20 | Fibrin Selectivity [1]: 2; Fibrin Selectivity (LOG10) [1]: 0.38; IC50 [1, 9]: 6 µM; IC50 [3, 21]: 15 µM
5 | CCC(=O)O[C@]1(C(=O)CCl)[C@@H](C)C[C@H]2[C@@H]3CCC4=CC(=O)C=C[C@]4(C)[C@@]3(F)[C@@H](O)C[C@@]21C [Clobetasol propionate, reference compound] | < 0.001 | < 0.001 | < 0.001 | 108 | Q2 |  | > 50 | Q2 |  | Q2 | < 0.001 | 105 | < 0.001 | < 0.001 | 3% | 3% |  | > 20 |  | > 20 | inhibition at 10 µM ([1]; primary HTS, 10 μM, fibrin-stimulated primary microglia): -22%; inhibition at 10 µM [2, 26]: > 50%; Quadrant (FIG. 5b) ([2]; primary HTS, 10 μM): Q4; inhibition at 10 µM ([3]; primary HTS, 10 μM, LPS-stimulated primary microglia): 30%; Fibrin % cell toxicity (primary rat microglia [4]; primary HTS, 10 μM, fibrin assay, dead cells size <150 μm2): 1%; LPS % cell toxicity (primary rat microglia [5]; primary HTS, 10 μM, LPS assay, dead cells size <150 μm2): 2%
6 | [H]/N=C(/NCCCCC)N/N=C/c1c[nH]c2ccc(OC)cc12 [Tegaserod maleate, reference compound] | 1 | 1 | 1 | 100 | Q2 | > 50 | > 50 | Q2 | Q2 | Q2 | 19 | 86 | 19 | 19 | 2% | 2% | > 20 | > 20 | > 20 | > 20 | Fibrin Selectivity [1]: 20; Fibrin Selectivity (LOG10) [1]: 1.29; IC50 [1, 9]: 1 µM; IC50 [3, 21]: 19 µM
7 | CNC(C)(C)Cc1ccccc1 [Mephentermine sulfate, reference compound] | > 20 | > 20 | > 20 | 60 | Q3 |  | > 50 | Q3 |  | Q3 | > 20 | 31 | > 20 | > 20 | 2% | 1% |  | > 20 |  | > 20 | inhibition at 10 µM [2, 26]: > 50%
8 | Cc1cc(-n2c(=O)[nH]c(=O)n(C)c2=O)ccc1Oc1ccc(SC(F)(F)F)cc1 [Toltrazuril, reference compound] | > 20 | > 20 | > 20 | 104 | Q2 |  | > 50 | Q2 |  | Q2 | > 20 | 90 | > 20 | > 20 | 3% | 2% |  | > 20 |  | > 20 | inhibition at 10 µM [2, 26]: > 50%
9 | C=C1C[C@H]2[C@@H]3C=C(C)C4=CC(=O)CC[C@]4(C)[C@H]3CC[C@]2(C)[C@@]1(OC(C)=O)C(C)=O [Melengestrol acetate, reference compound] | 0.07 | 0.07 | 0.07 | 86 | Q2 | > 50 | > 50 | Q2 | Q2 | Q2 | 13 | 67 | 13 | 13 | 2% | 2% | > 20 | > 20 | > 20 | > 20 | Fibrin Selectivity [1]: 196; Fibrin Selectivity (LOG10) [1]: 2.29; IC50 [1, 9]: 0.07 µM; IC50 [1, 10]: 0.07 µM; Fibrin Selectivity (LOG10) ([1]; fibrin vs LPS, LOG10, Table 6): 2.29; Fibrin Selectivity ([1]; fibrin vs LPS, Table 6): 196; Quadrant (FIG. 5b) ([2]; microglia HTS, Table 6): Q2; IC50 [3, 21]: 13 µM; IC50 [3, 22]: 13 µM; IC50 (primary rat microglia [5]; LPS assay, Table 6): > 20 µM; IC50 (in vitro [7]; cFib assay, Table 6): > 20 µM
